# Patent publication EP0755386B1, “BENZAMIDE DERIVATIVE, COMPOSITIONS CONTAINING SAID DERIVATIVE AND USE THEREOF” (Romark Laboratories, L.C., priority 1994, dated 1995)
# Where two headings read alike, the source gives them in different places.
# Tests used:
# Trichomonas vaginalis [1] = assay: In vitro studies against Trichomonas vaginalis; format: cell-based; settings: for MIC: in vitro, Trichomonas vaginalis, read-out: Minimum Inhibitory Concentration
# [2] = Toxicity in cultures of 2.2.15 cells, neutral red dye uptake; format: cell-based; settings: human, 50 % inhibit of cell proliferation, read-out: cytotoxic concentration (CC 50)
# Protocol: (§1) The protocol for essaying anti-HBV compounds in cultures of 2.2.15 cells can be briefly summarized as follows (Korba and Milman, 1991, Antiviral Res. 217:217) : • * Chronically HBV-producing human liver cells (Acs, et al, 1987, PNAS 84:4641) are seeded into 24 well tissue culture plates and grown to confluence. • * Test compounds are then added daily for a continuous 9 day period. Culture medium (changed daily during the treatment period) is collected and stored for analysis of extracellular (virion) HBV DNA after 0,3,6 and 9 days of treatment. • * Treated cells are lysed 24 hours following day 9 of treatment for the analysis of intracellular HBV genomic forms. • * HBV DNA is then analyzed in a quantitative and qualitative manner for overall levels of HBV DNA (both extracellular and intracellular DNA) and the relative rate of HBV replication (intracellular DNA). The protocol for determining toxicity of compounds in cultures of 2.2.15 cells can be briefly summarized as follows (Korba and Gerin, submited for publication) : • * 2.2.15 cells were grown to confluence in 96 well fat-bottomed tissue culture plates and treated with compounds (in 0.2 ml culture medium/well) as described above. Four concentrations of each compound were assayed, each in triplicate cultures, 3 to 10-fold steps. • * Untreated control cultures were maintained on each 96 well plate.
# HBV = assay: Antiviral activity against HBV replication in cultures of 2.2.15 cells; format: cell-based; settings: for selective index SI: HBV, CC 50/EC 50; for EC50: Hepatitis B virus, 216 h, read-out: effective concentration (EC 50)
# Protocol: as §1
# Staphylococcus aureus = assay: Activity of aqueous compositions on aerobic bacteria; settings: aqueous composition (100 g) containing 10 g active agent
# Source text: (§2) Aqueous compositions (100 g) containing 10 g of an active agent have been prepared.
# Fusobacterium SPP = assay: Activity of aqueous compositions on anaerobic bacteria; settings: aqueous composition (100 g) containing 10 g active agent
# Source text: as §2
# Entamoeba coli = assay: Activity of aqueous compositions on protozoa; settings: aqueous composition (100 g) containing 10 g active agent
# Source text: as §2
# Peptostreptococcus SPP = assay: Activity of aqueous compositions on anaerobic bacteria; settings: aqueous composition (100 g) containing 10 g active agent
# Source text: as §2
# Escherichia coli = assay: Activity of aqueous compositions on aerobic bacteria; settings: aqueous composition (100 g) containing 10 g active agent
# Source text: as §2
# Trichomonas intestinalis = assay: Activity of aqueous compositions on protozoa; settings: aqueous composition (100 g) containing 10 g active agent
# Source text: as §2
# Trichomonas vaginalis [3] = assay: Activity of aqueous compositions on protozoa; settings: aqueous composition (100 g) containing 10 g active agent
# Source text: as §2
# Taenia solium = assay: Activity of aqueous compositions on helminths; settings: aqueous composition (100 g) containing 10 g active agent
# Source text: as §2
# Encamoeba histolytica = assay: Activity of aqueous compositions on protozoa; settings: aqueous composition (100 g) containing 10 g active agent
# Source text: as §2
# Candida Albicans = assay: Activity of aqueous compositions on fungus; settings: aqueous composition (100 g) containing 10 g active agent
# Source text: as §2
# Balancidium coli = assay: Activity of aqueous compositions on protozoa; settings: aqueous composition (100 g) containing 10 g active agent
# Source text: as §2
# Enterocytozoon bieneusi = assay: Activity of aqueous compositions on protozoa; settings: aqueous composition (100 g) containing 10 g active agent
# Source text: as §2
# Hymenolepis nana = assay: Activity of aqueous compositions on helminths; settings: aqueous composition (100 g) containing 10 g active agent
# Source text: as §2
# Diencamoeba fragilis = assay: Activity of aqueous compositions on protozoa; settings: aqueous composition (100 g) containing 10 g active agent
# Source text: as §2
# Bladtocystis hominis = assay: Activity of aqueous compositions on protozoa; settings: aqueous composition (100 g) containing 10 g active agent
# Source text: as §2
# Clostridum species = assay: Activity of aqueous compositions on anaerobic bacteria; settings: aqueous composition (100 g) containing 10 g active agent
# Source text: as §2
# Cryptosporidium parvum = assay: Activity of aqueous compositions on protozoa; settings: aqueous composition (100 g) containing 10 g active agent
# Source text: as §2
# Protens vulgaris = assay: Activity of aqueous compositions on aerobic bacteria; settings: aqueous composition (100 g) containing 10 g active agent
# Source text: as §2
# Peptococcus species = assay: Activity of aqueous compositions on anaerobic bacteria; settings: aqueous composition (100 g) containing 10 g active agent
# Source text: as §2
# Bacceroides species = assay: as above; settings: aqueous composition (100 g) containing 10 g active agent
# Source text: as §2
# Encamoeba dispar = assay: Activity of aqueous compositions on protozoa; settings: aqueous composition (100 g) containing 10 g active agent
# Source text: as §2
# Endolimax nana = assay: Activity of aqueous compositions on protozoa; settings: aqueous composition (100 g) containing 10 g active agent
# Source text: as §2
# Giarda lamblia = assay: Activity of aqueous compositions on protozoa; settings: aqueous composition (100 g) containing 10 g active agent
# Source text: as §2
# Septata intestinalis = assay: Activity of aqueous compositions on protozoa; settings: aqueous composition (100 g) containing 10 g active agent
# Source text: as §2
# [4] = system: Strongyloïdes stercoralis; assay: Activity of aqueous compositions on helminths; settings: aqueous composition (100 g) containing 10 g active agent
# Source text: as §2
# Taenia saginata = assay: Activity of aqueous compositions on helminths; settings: aqueous composition (100 g) containing 10 g active agent
# Source text: as §2
# Microsporum audovini = assay: Activity of aqueous compositions on fungus; settings: aqueous composition (100 g) containing 10 g active agent
# Source text: as §2
# [5] = system: Trychophyton Mentagrophytes; assay: Activity of aqueous compositions on fungus; settings: aqueous composition (100 g) containing 10 g active agent
# Source text: as §2
# Epidermophyton flocosum = assay: Activity of aqueous compositions on fungus; settings: aqueous composition (100 g) containing 10 g active agent
# Source text: as §2
# Isospora belli = assay: Activity of aqueous compositions on protozoa; settings: aqueous composition (100 g) containing 10 g active agent
# Source text: as §2
# Ascaris lumbricoides = assay: Activity of aqueous compositions on helminths; settings: aqueous composition (100 g) containing 10 g active agent
# Source text: as §2
# Enterobius vermicularis = assay: Activity of aqueous compositions on helminths; settings: aqueous composition (100 g) containing 10 g active agent
# Source text: as §2
# Trichuris trichiura = assay: Activity of aqueous compositions on helminths; settings: aqueous composition (100 g) containing 10 g active agent
# Source text: as §2
# Necator americanus = assay: Activity of aqueous compositions on helminths; settings: aqueous composition (100 g) containing 10 g active agent
# Source text: as §2
# Anycylosloma duodenale = assay: Activity of aqueous compositions on helminths; settings: aqueous composition (100 g) containing 10 g active agent
# Source text: as §2
Compound,MIC (Trichomonas vaginalis [1]) [µg/mL],CC50 at 9 days [2] [µg/mL],selective index SI (HBV),ACTIVITY (Staphylococcus aureus),ACTIVITY (Fusobacterium SPP),ACTIVITY (Entamoeba coli),ACTIVITY (Peptostreptococcus SPP),ACTIVITY (Escherichia coli),ACTIVITY (Trichomonas intestinalis),ACTIVITY (Trichomonas vaginalis [3]),ACTIVITY (Taenia solium),ACTIVITY (Candida Albicans),ACTIVITY (Enterocytozoon bieneusi),ACTIVITY (Hymenolepis nana),ACTIVITY (Bladtocystis hominis),ACTIVITY (Cryptosporidium parvum),ACTIVITY (Protens vulgaris),ACTIVITY (Septata intestinalis),ACTIVITY [4],ACTIVITY (Taenia saginata),further results
"O=C(Nc1ncc([N+](=O)[O-])s1)c1ccccc1O [Compound A, 2-(hydroxy)-N-(5-nitro-2-thiazolyl) benzamide]",1 to 1.25,> 1000,higher than 500,,,,,,,,,,,,,,,,,,onset of action (Trichomonas vaginalis [1]; in vitro studies): substantially immediate action; EC50 (HBV): 1.8 ± 0.1 µg/mL
"CC(=O)Oc1ccccc1C(=O)Nc1ncc([N+](=O)[O-])s1 [Compound B, 2-(acetolyloxy)-N-(5-nitro 2-thiazolyl) benzamide]",0.5 to 1.25,,,,,,,,,,,,,,,,,,,,
"CCCSc1ccc2nc(NC(=O)OC)[nH]c2c1 [Compound P3, Albendazole]",,,,No,No,No,No,No,No,No,No,No,No,No,No,No,No,No,No,No,ACTIVITY (Encamoeba histolytica): No; ACTIVITY (Balancidium coli): No; ACTIVITY (Diencamoeba fragilis): No; ACTIVITY (Clostridum species): No; ACTIVITY (Peptococcus species): No; ACTIVITY (Bacceroides species): No; ACTIVITY (Encamoeba dispar): No; ACTIVITY (Endolimax nana): No; ACTIVITY (Giarda lamblia): No
"COC(=O)Nc1nc2ccc(C(=O)c3ccccc3)cc2[nH]1 [Compound P4, Mebendazole]",,,,No,No,No,No,No,No,No,No,No,No,No,No,No,No,No,No,No,ACTIVITY (Encamoeba histolytica): No; ACTIVITY (Balancidium coli): No; ACTIVITY (Diencamoeba fragilis): No; ACTIVITY (Microsporum audovini): No; ACTIVITY (Clostridum species): No; ACTIVITY [5]: No; ACTIVITY (Peptococcus species): No; ACTIVITY (Bacceroides species): No; ACTIVITY (Epidermophyton flocosum): No; ACTIVITY (Encamoeba dispar): No; ACTIVITY (Endolimax nana): No; ACTIVITY (Isospora belli): No; ACTIVITY (Giarda lamblia): No
"Cc1ncc([N+](=O)[O-])n1CCO [Compound P5, Metronidazole]",,,,No,,,,No,,,No,No,No,No,No,No,No,No,No,No,ACTIVITY (Ascaris lumbricoides): No; ACTIVITY (Enterobius vermicularis): No; ACTIVITY (Trichuris trichiura): No; ACTIVITY (Microsporum audovini): No; ACTIVITY (Necator americanus): No; ACTIVITY [5]: No; ACTIVITY (Anycylosloma duodenale): No; ACTIVITY (Epidermophyton flocosum): No
Nc1ccn([C@H]2CC[C@@H](CO)O2)c(=O)n1 [Zalcitabine],,261 ± 24,about 145,,,,,,,,,,,,,,,,,,"EC50 (HBV; HBV replication in 2.2.15 cells, 9 day treatment): 1.8 ± 0.2 µg/mL"
